# Assay results: PubChem BioAssay (NCI)
#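 Following 48 hours of exposure in 96-well plates, responses at five concentrations were used to interpolate endpoints linearly. At the GI50, growth is halved. TGI marks complete inhibition of growth.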
# What was measured:
# Assay in all cases: NCI tumour cell line growth inhibition, 48 h
# [1] = test system: OVCAR-4 ovarian
# [2] = test system: SW-620 colon
# [3] = test system: HOP-62 NSCLC
# [4] = test system: NCI-H23 lung
# [5] = test system: U251 CNS
# [6] = test system: OVCAR-8 ovarian
# [7] = test system: A549 NSCLC
# [8] = test system: HL-60(TB) leukemia
# [9] = test system: MALME-3M melanoma
# [10] = test system: MCF7 breast
# [11] = test system: SF-295 CNS
# [12] = test system: M14 melanoma
# [13] = test system: SNB-75 CNS
# [14] = test system: K-562 leukemia
# [15] = test system: NCI-H226 lung
# [16] = test system: SF-268 CNS
# [17] = test system: NCI/ADR-RES ovarian
compound,measurement,setting,value
Cc1ccc(S(=O)(=O)N2C3C=CC(C3)[C@@H]2C(Cl)(Cl)Cl)cc1 (stereo partly drawn),TGI,[1],> 77.1 µM
same,TGI,[2],44.9 µM
same,TGI,[3],41.5 µM
same,TGI,[4],> 100 µM
same,TGI,[5],40.1 µM
same,TGI,[6],> 63.3 µM
same,TGI,[7],> 100 µM
same,TGI,[8],> 47 µM
same,TGI,[9],56.1 µM
same,TGI,[10],> 100 µM
same,TGI,[11],35.1 µM
same,TGI,[12],39.1 µM
same,TGI,[13],51.2 µM
same,GI50,[14],28.5 µM
same,TGI,[14],> 100 µM
same,TGI,[15],60.9 µM
same,TGI,[16],46.9 µM
same,TGI,[17],44.6 µM
C(=C/CCCN1O[C@@H](CCCCCCCCc2cccnc2)[C@H]2CCC[C@H]21)/CCCCCCCCCc1cccnc1,TGI,[1],> 100 µM
same,TGI,[2],91.8 µM
same,TGI,[3],49.3 µM
same,TGI,[4],61.7 µM
same,TGI,[5],34.5 µM
same,TGI,[6],88.3 µM
same,TGI,[7],47.2 µM
same,TGI,[8],23 µM
same,TGI,[9],33.9 µM
same,TGI,[10],31.6 µM
same,TGI,[11],41.9 µM
same,TGI,[12],63 µM
same,TGI,[13],51.4 µM
same,TGI,[14],29 µM
same,TGI,[15],36.8 µM
same,TGI,[16],63.7 µM
same,TGI,[17],88.5 µM
CC(C)(CN1CCCCC1)C(/C=C/c1ccc(Cl)cc1)=N\NC(=O)N/N=C(/C=C/c1ccc(Cl)cc1)C(C)(C)CN1CCCCC1,TGI,[1],15 µM
same,TGI,[2],7.67 µM
same,TGI,[3],14.2 µM
same,TGI,[4],10.3 µM
same,TGI,[5],12.6 µM
same,TGI,[6],23.1 µM
same,TGI,[7],> 57 µM
same,TGI,[8],> 19.9 µM
same,TGI,[9],22.9 µM
same,TGI,[10],> 35.3 µM
same,TGI,[11],33 µM
same,TGI,[12],11.1 µM
same,TGI,[13],12.7 µM
same,TGI,[14],> 100 µM
same,TGI,[15],16.4 µM
same,TGI,[16],21.6 µM
same,TGI,[17],29.4 µM
O=C(O)Cc1ccc([N+](=O)[O-])cc1[N+](=O)[O-],TGI,[1],> 100 µM
same,TGI,[2],> 100 µM
same,TGI,[3],> 100 µM
same,TGI,[4],> 100 µM
same,TGI,[5],> 100 µM
same,TGI,[6],> 100 µM
same,TGI,[7],> 100 µM
same,TGI,[8],> 100 µM
same,TGI,[9],> 100 µM
same,TGI,[10],> 100 µM
same,TGI,[11],> 100 µM
same,TGI,[12],> 100 µM
same,TGI,[13],> 100 µM
same,TGI,[14],> 100 µM
same,TGI,[15],> 100 µM
same,TGI,[16],> 100 µM
same,TGI,[17],> 100 µM
COCOC1/C=C/CCCCC(=O)C(C)C#CC1 (stereo not drawn),TGI,[1],24.4 µM
same,TGI,[2],3.56 µM
same,TGI,[3],33.9 µM
same,TGI,[4],16.3 µM
same,TGI,[5],28 µM
same,TGI,[6],17.7 µM
same,TGI,[7],30.1 µM
same,TGI,[8],4.33 µM
same,TGI,[9],4.95 µM
same,TGI,[10],14.8 µM
same,TGI,[11],31.3 µM
same,TGI,[12],14.5 µM
same,TGI,[13],26.1 µM
same,TGI,[14],7.66 µM
same,TGI,[15],35.3 µM
same,TGI,[16],35.1 µM
same,TGI,[17],14.4 µM
CC(N)/C(N)=N/O (stereo not drawn),TGI,[1],> 100 µM
same,TGI,[2],> 100 µM
same,TGI,[3],> 100 µM
same,TGI,[4],> 100 µM
same,TGI,[5],> 100 µM
same,TGI,[6],> 100 µM
same,TGI,[7],> 100 µM
same,TGI,[8],> 100 µM
same,TGI,[9],> 100 µM
same,TGI,[10],> 100 µM
same,TGI,[11],> 100 µM
same,TGI,[12],> 100 µM
same,TGI,[13],> 100 µM
same,TGI,[14],> 100 µM
same,TGI,[15],> 100 µM
same,TGI,[16],> 100 µM
same,TGI,[17],> 100 µM
